The values below come from ChEMBL document CHEMBL4602701 (J Med Chem, 2020).

For series [1], the target named is T1, Steroid 17-alpha-hydroxylase/17,20 lyase (Homo sapiens, UniProt P05093).
T1 sequence (P05093 whole entry): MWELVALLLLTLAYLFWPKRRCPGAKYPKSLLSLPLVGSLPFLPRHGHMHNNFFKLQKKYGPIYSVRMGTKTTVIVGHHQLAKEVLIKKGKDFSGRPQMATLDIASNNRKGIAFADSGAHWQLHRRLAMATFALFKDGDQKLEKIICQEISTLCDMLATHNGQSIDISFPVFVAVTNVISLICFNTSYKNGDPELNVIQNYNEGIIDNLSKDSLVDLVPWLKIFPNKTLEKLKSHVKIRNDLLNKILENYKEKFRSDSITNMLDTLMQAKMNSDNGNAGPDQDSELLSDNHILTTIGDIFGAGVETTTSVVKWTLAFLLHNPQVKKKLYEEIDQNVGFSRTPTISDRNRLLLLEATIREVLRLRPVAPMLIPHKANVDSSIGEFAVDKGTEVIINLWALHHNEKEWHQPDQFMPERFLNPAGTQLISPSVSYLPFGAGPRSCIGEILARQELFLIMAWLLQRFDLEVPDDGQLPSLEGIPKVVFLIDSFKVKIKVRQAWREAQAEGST
Briefly: Binding affinity to C-terminal 6-His-tagged human CYP17A1 expressed in Escherichia coli assessed as induction of spectral changes by measuring rate constant of first reaction at 20 uM using 2 uM CYP17A1 by spectroscopy.

For series [2], the target named is T1, Steroid 17-alpha-hydroxylase/17,20 lyase. Briefly: Binding affinity to C-terminal 6-His-tagged human CYP17A1 expressed in Escherichia coli assessed as induction of type II binding spectral changes at 50 uM using 1 uM CYP17A1 by spectroscopy.
The target is the same in series [3]. Briefly: Binding affinity to C-terminal 6-His-tagged human CYP17A1 expressed in Escherichia coli assessed as induction of spectral changes by measuring rate constant of second reaction at 20 uM using 2 uM CYP17A1 by spectroscopy.

Regarding `CC(C)[C@](O)(c1ccc2cc(OC(F)F)c(OC(F)F)cc2c1)c1c[nH]nn1` [SEVITERONEL], the K in series [1] is 44 to 45 s⁻¹; in series [3], 1.9 s⁻¹. The outcome in series [2] was Active.
